Assay results reported in patent US20030022243A1, “Protein aggregation assays and uses thereof” (priority 2001, published 2003).

Legend:
Type in all cases: biochemical
Zinc-deficient SOD-1 = Zinc-deficient SOD-1 (Homo sapiens, UniProt P00441); experiment: MCO-induced aggregation of zinc-deficient SOD-1, light scattering; conditions: 37° C.
Description: Apo-SOD-1 was incubated in the presence of a 1.1-fold molar excess of CuCl2 in 17 mM sodium acetate buffer, pH 3.8, for 24 hours at 40° C.
Zinc-deficient SOD-1 was prepared, MCO-treated, and used to test various compounds and conditions for their effect on SOD-1 aggregation. Zinc-deficient SOD-1 aggregation mixtures were incubated with either 2 mM EDTA, 10 mM mannitol, or 10 mM DMPO as probes for the reactive oxygen species. Anaerobic conditions were achieved by degassing all solutions and oxidizing under vacuum (37° C.) in a vacuum hydrolysis tube (Pierce). Aggregates were detected using light scattering measurements made with a Photon Technology International QM-1 fluorescence spectrophotometer. Excitation and emission wavelengths were set to 350 nm (bandpass=4 nm).

apo-SOD-1 = apo-SOD-1 (Homo sapiens, UniProt P00441); experiment: Native state stabilization assay (thermal aggregation of apo-SOD-1, RP-HPLC of soluble SOD-1); conditions: apo-SOD-1 incubated at 60° C. with exogenous metal
Description: Apo-SOD-1 was prepared from holo-SOD-1 as reported (Crow et al., J. Neurochem., 69:1936, 1997). Holo-SOD-1 was first extensively dialyzed against 10 mM sodium acetate buffer containing 1 mM EDTA, pH 3.8 for 24-72 hours, then dialyzed against 10 mM sodium acetate buffer containing 100 mM NaCl, pH 3.8, and finally dialyzed against the desired buffer.
For FIG. 17, apo-SOD-1 (100 μl) prepared as described above at a concentration of 30 μM in 10 mM sodium acetate buffer, pH 5.0, was incubated for 24 hours at either 4°, 37°, or 60° C. in sealed polypropylene tubes. […] RP-HPLC was carried out on a Zorbax SB300 C8 column (3.0×10 cm, 3.5 μm particle size) using a linear 4% B per min AB gradient at a flow rate of 1.0 ml/min, where A was 0.1% aqueous TFA and B was 0.1% TFA in acetonitrile. Detection was based on UV absorbance at 215 nm. In contrast, the sample incubated at 60° C. contained essentially no soluble SOD-1 in the supernatant as measured by the same method of analysis.
An example of the use of the native state stabilization assay to test agents for inhibition of aggregation can be found in FIG. 18. Apo-SOD-1 samples were incubated under various conditions and analyzed by RP-HPLC to quantitate amounts of soluble SOD-1 remaining. Apo-SOD-1 incubated at 4° C. […] (positive aggregation control; chromatogram a). […]

[1] = molecular target: T1, SOD-1, from human erythrocytes (Homo sapiens, UniProt P00441); experiment: MCO (ascorbate/Cu)-induced SOD-1 aggregation, right angle light scattering
T1 construct: SOD-1 was purchased from Sigma (purified from erythrocytes) and dissolved in the appropriate buffer; purchased Sigma-Aldrich Fine Chemicals (St. Louis, Mo., USA); host or cells: human erythrocytes
Description: The effect of pH, copper ions, and ascorbic acid on the induction of SOD-1 aggregation was examined as follows. […] Right angle light scattering was measured at room temperature using a Photon Technology International QM-1 fluorescence spectrophotometer. Both the excitation and emission wavelengths were set to 350 nm and a 1 nm bandpass. A cuvette with an excitation and emission path lengths of 2 mm and 10 mm, respectively was used for the measurements.
In addition, right angle light scattering was measured using a DynaPro99 Molecular Sizing Instrument with attached MicroSampler-MSXTC/12 (Protein Solutions, Inc., Charlottesville, Va.). A 12 μl-DynaPro quartz cuvette with a path length of 1.5 mm was used for all experiments. In the measurement, the SOD-1 sample solution was illuminated by a 60 mW, 825 nm solid-state laser, and the intensity of light scattered at a 90° angle was measured directly as the solution photon count rate in units of kcounts/sec. The averaged count rate was automatically calculated after all acquisitions of the measurements.

[2] = 10 mM free radical scavenger in the oxidation reaction

T1 sequence (P00441 2-154 limits assumed): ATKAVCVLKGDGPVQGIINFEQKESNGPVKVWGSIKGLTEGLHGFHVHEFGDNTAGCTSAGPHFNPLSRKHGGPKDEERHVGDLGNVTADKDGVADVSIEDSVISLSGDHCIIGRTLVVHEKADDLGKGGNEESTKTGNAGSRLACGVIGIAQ
Sequence of Zinc-deficient SOD-1 (P00441 2-154 limits assumed): as above
Sequence of apo-SOD-1 (P00441 2-154 limits assumed): as above

Compound: CC1(C)CCC=[N+]1[O-] [DMPO]
- inhibition of MCO-induced aggregation (light scattering) (Zinc-deficient SOD-1; [2]): did not inhibit aggregation

Compound: [Zn] [zinc]
- soluble SOD-1 remaining versus apo-SOD-1 without exogenous metal (RP-HPLC) (apo-SOD-1): significantly more soluble SOD-1

Compound: [Cu] [copper]
- soluble SOD-1 remaining versus apo-SOD-1 without exogenous metal (RP-HPLC) (apo-SOD-1): significantly more soluble SOD-1

Compound: O=C1O[C@H]([C@@H](O)CO)C(O)=C1O [ascorbic acid]
- induction of SOD-1 aggregates detectable by right angle light scattering ([1]; 2 mM ascorbic acid, 10 mM phosphate buffer pH 6, 37° C., 38 hours): resulted in the formation of aggregates

Compound: OC[C@@H](O)[C@@H](O)[C@H](O)[C@H](O)CO [mannitol]
- inhibition of MCO-induced aggregation (light scattering) (Zinc-deficient SOD-1; [2]): did not inhibit aggregation

Compound: O=C(O)CN(CCN(CC(=O)O)CC(=O)O)CC(=O)O [EDTA]
- inhibition of MCO-induced aggregation (light scattering) (Zinc-deficient SOD-1; 2 mM EDTA in the oxidation reaction): inhibited aggregation

Compound: [Cl][Cu][Cl] [CuCl2]
- induction of SOD-1 aggregates ([1]; 25 μM CuCl2 in 10 mM sodium phosphate, no ascorbic acid, 38 hours): no aggregates of SOD-1 were induced
- relative amount of aggregation induced by ascorbic acid ([1]; addition of 25 μM CuCl2 to 2 mM ascorbic acid): significantly enhanced
